Measured values as given in patent US8906868B2, “Aminoglycoside derivatives” (Rempex Pharmaceuticals, Inc., priority 2010, dated 2014).
Values after ≈ are worked out from the molar mass of the structure shown. Like-named read-outs stand apart in the source and are kept apart here.

How the values were obtained:
ACM1005 ATCC 19004 = test: MIC, broth microdilution; type: cell-based, Acinetobacter baumannii; settings: Acinetobacter baumannii, ATCC19004; Table 4; read-out: Compound MIC on Bacterial Strains: Acinetobacter baumannii ACM1005 ATCC 19004
Procedure: (§1) To compare microbiological activity of the test compounds, minimum inhibitory concentrations (MIC.s) were determined. Antibiotic MICs were obtained using the broth microdilution method according to Clinical and Laboratory Standards Institute (CLSI) approved guidelines (Methods for dilution antimicrobial susceptibility tests for bacteria that grow aerobically; approved standard—7th ed. CLSI document M7-A7. Clinical and Laboratory Standards Institute, Wayne, Pa., incorporated herein by reference in its entirety). Antibiotics were dissolved as specified by CLSI (Performance standards for antimicrobial susceptibility testing; Seventeenth informational supplement. CLSI document M100-S17. Clinical and Laboratory Standards Institute, Wayne, Pa., incorporated herein by reference in its entirety), and were serially diluted 2-fold in cation adjusted Mueller Hinton Broth (CaMHB) at 2× concentration. Bacterial inoculums were prepared in CaMHB by suspension of a colony from an agar plate that was prepared the previous day to obtain a final concentration of 5×10^5CFU/ml. The plates were incubated for 18 hours at 35° C. […] MIC.s were determined by reading the turbidity of plate wells using a SpectraMax Plus384 plate reader (Molecular Devices, Sunnyvale, Calif., USA) at 600 nm and were confirmed by visual inspection.

[1] = test system: Acinetobacter baumannii (ATCC 19606); test: MIC, broth microdilution; settings: Acinetobacter baumannii, ATCC19606, read-out: Compound MIC on Bacterial Strains: A. baumannii ATCC 19606
[2] = test system: Pseudomonas aeruginosa (ATCC 27853); test: MIC, broth microdilution; settings: Pseudomonas aeruginosa
[3] = test system: Escherichia coli (ATCC 25922); test: MIC, broth microdilution; settings: Escherichia coli
ACM1006 acc(6′)-Ib = test: microbe, parasite or virus in culture; type: cell-based, Acinetobacter baumannii; settings: Acinetobacter baumannii; Table 4; read-out: Compound MIC on Bacterial Strains: Acinetobacter baumannii ACM1006 acc(6′)-Ib
Procedure: as §1

[4] = test system: Klebsiella pneumonia (ATCC 43816); test: MIC, broth microdilution; settings: Klebsiella pneumoniae, ATCC43816, read-out: Compound MIC on Bacterial Strains: K. pneumonia ATCC 43816
EC1001 acc(6′)-Ib = test: microbe, parasite or virus in culture; type: cell-based, Escherichia coli; settings: Escherichia coli; Table 4; read-out: Compound MIC on Bacterial Strains: Escherichia coli EC1001 acc(6′)-Ib
Procedure: as §1

[5] = test system: ECM6007 aac(6′) + aph(2″); test: microbe, parasite or virus in culture; type: cell-based, Escherichia coli; settings: Escherichia coli, 18 h; Table 4; read-out: Compound MIC on Bacterial Strains: Escherichia coli ECM6007 aac(6′) + aph(2″)
Procedure: as §1

[6] = test system: Staphylococcus aureus (ATCC 29213); test: MIC, broth microdilution; settings: Staphylococcus aureus
ECM6003 rmtB = test: microbe, parasite or virus in culture; type: cell-based, Escherichia coli; settings: Escherichia coli; Table 3; read-out: Compound MIC on Bacterial Strains: ECM6003 rmtB
Procedure: as §1
(§2) Activity of the test compounds was determined using QC strains and strains with known aminoglycoside resistance mechanisms (TABLE 3). This specific panel contained strains expressing enzymes that covalently modify N2″, N3 and N3′ positions.
The panel also contained a strain expressing ribosomal RNA methylase, RmtB.

PAM3073 aac(6′)-I = test: microbe, parasite or virus in culture; type: cell-based, Pseudomonas aeruginosa; settings: Pseudomonas aeruginosa, Table 5; read-out: Compound MIC on Bacterial Strains: Pseudomonas aeruginosa PAM3073 aac(6′)-I
Procedure: as §1

PAM3072 aac(6′)-II = test: microbe, parasite or virus in culture; type: cell-based, Pseudomonas aeruginosa; settings: Pseudomonas aeruginosa, Table 5; read-out: Compound MIC on Bacterial Strains: Pseudomonas aeruginosa PAM3072 aac(6′)-II
Procedure: as §1

ECM6011 aph(3′)-I = test: microbe, parasite or virus in culture; type: cell-based, Escherichia coli; settings: Escherichia coli, read-out: Compound MIC on Bacterial Strains: ECM6011 aph(3′)-I
Procedure: as §1, §2

ECM6010 ant(2″)-I = test: microbe, parasite or virus in culture; type: cell-based, Escherichia coli; settings: Escherichia coli, read-out: Compound MIC on Bacterial Strains: ECM6010 ant(2″)-I
Procedure: as §1, §2

ECM6009 aac(3)-II = test: microbe, parasite or virus in culture; type: cell-based, Escherichia coli; settings: Escherichia coli, read-out: Compound MIC on Bacterial Strains: ECM6009 aac(3)-II
Procedure: as §1, §2

ECM6006 aph(3′)-III = test: microbe, parasite or virus in culture; type: cell-based, Escherichia coli; settings: Escherichia coli, read-out: Compound MIC on Bacterial Strains: ECM6006 aph(3′)-III
Procedure: as §1, §2

EC1002 aph(3′)-IV = test: organism not typed; type: cell-based; settings: read-out: Compound MIC on Bacterial Strains: EC1002 aph(3′)-IV
Procedure: as §1, §2

[7] = ATCC27853, read-out: Compound MIC on Bacterial Strains: P. aeruginosa ATCC 27853
[8] = ATCC25922, read-out: Compound MIC on Bacterial Strains: E. coli ATCC 25922
[9] = ATCC25922, read-out: Compound MIC on Bacterial Strains: Escherichia coli ECM6000 ATCC 25922
[10] = ATCC29213, read-out: Compound MIC on Bacterial Strains: S. aureus ATCC 29213, QC strain, Table 2
[11] = ATCC27853, read-out: Compound MIC on Bacterial Strains: Pseudomonas aeruginosa PAM3034 ATCC 27853
[12] = ATCC25922, read-out: Compound MIC on Bacterial Strains: ECM6000 ATCC 25922
[13] = ATCC29213, read-out: Compound MIC on Bacterial Strains: Staphylococcus aureus SAM1000 ATCC 29213, Table 5

Row | Compound | MIC (ACM1005 ATCC 19004) | MIC [1] | MIC [2, 7] | MIC [3, 8] | MIC [3, 9] | MIC (ACM1006 acc(6′)-Ib) | MIC [4] | MIC (EC1001 acc(6′)-Ib) | MIC [5] | MIC [6, 10] | MIC (ECM6003 rmtB) | MIC (PAM3073 aac(6′)-I) | MIC (PAM3072 aac(6′)-II) | MIC [2, 11] | MIC [3, 12] | MIC (ECM6011 aph(3′)-I) | MIC (ECM6010 ant(2″)-I) | MIC (ECM6009 aac(3)-II) | MIC (ECM6006 aph(3′)-III) | MIC (EC1002 aph(3′)-IV) | also measured
1 | CN[C@@H]1[C@@H](O)[C@@H](O[C@@H]2[C@@H](O)[C@H](O[C@H]3O[C@H](CN)CC[C@H]3N)[C@@H](N)C[C@H]2NC(=O)[C@@H](O)[C@H](N)CN)OC[C@]1(C)O [Compound 3, (2S,3R)-3,4-diamino-N-((1R,2S,3S,4R,5S)-5-amino-4-((2R,3R,6S)-3-amino-6-(aminomethyl)tetrahydro-2H-pyran-2-yloxy)-2-((2R,3R,4R,5R)-3,5-dihydroxy-5-methyl-4-(methylamino)tetrahydro-2H-pyran-2-yloxy)-3-hydroxycyclohexyl)-2-hydroxybutanamide] | 1 to 8 µg/mL (≈ 1.77 to 14.1 µM) | > 8 µg/mL | < 1 µg/mL | < 1 µg/mL | 1 to 8 µg/mL (≈ 1.77 to 14.1 µM) | 1 to 8 µg/mL (≈ 1.77 to 14.1 µM) | < 1 µg/mL | > 8 µg/mL | < 1 µg/mL | < 1 µg/mL |  |  |  |  |  |  |  |  |  |  | 
2 | CN[C@@H]1[C@@H](O)[C@@H](O[C@@H]2[C@@H](O)[C@H](O[C@H]3O[C@H](CNCC(O)CO)CC[C@H]3N)[C@@H](N)C[C@H]2NC(=O)[C@@H](O)CCN)OC[C@]1(C)O (stereo partly drawn) [Compound 8, (2S)-4-amino-N-((1R,2S,3S,4R,5S)-5-amino-4-((2R,3R,6S)-3-amino-6-((2,3-dihydroxypropylamino)methyl)tetrahydro-2H-pyran-2-yloxy)-2-((2R,3R,4R,5R)-3,5-dihydroxy-5-methyl-4-(methylamino)tetrahydro-2H-pyran-2-yloxy)-3-hydroxycyclohexyl)-2-hydroxybutanamide] | 1 to 8 µg/mL (≈ 1.6 to 12.8 µM) | > 8 µg/mL | 1 to 8 µg/mL (≈ 1.6 to 12.8 µM) | < 1 µg/mL | < 1 µg/mL | 1 to 8 µg/mL (≈ 1.6 to 12.8 µM) | < 1 µg/mL | < 1 µg/mL | < 1 µg/mL | < 1 µg/mL | > 8 µg/mL | 1 to 8 µg/mL (≈ 1.6 to 12.8 µM) | > 8 µg/mL | 1 to 8 µg/mL (≈ 1.6 to 12.8 µM) | < 1 µg/mL | < 1 µg/mL | < 1 µg/mL | < 1 µg/mL | 1 to 8 µg/mL (≈ 1.6 to 12.8 µM) | < 1 µg/mL | MIC [6, 13]: < 1 µg/mL
3 | CN[C@@H]1[C@@H](O)[C@@H](O[C@@H]2[C@@H](O)[C@H](O[C@H]3O[C@H](CN)CC[C@H]3N)[C@@H](N)C[C@H]2NC(=O)[C@@H](O)[C@H](N)CO)OC[C@]1(C)O [Compound 20, (2S,3R)-3-amino-N-((1R,2S,3S,4R,5S)-5-amino-4-((2R,3R,6S)-3-amino-6-(aminomethyl)tetrahydro-2H-pyran-2-yloxy)-2-((2R,3R,4R,5R)-3,5-dihydroxy-5-methyl-4-(methylamino)tetrahydro-2H-pyran-2-yloxy)-3-hydroxycyclohexyl)-2,4-dihydroxybutanamide] |  | > 8 µg/mL | 1 to 8 µg/mL (≈ 1.76 to 14.1 µM) | 1 to 8 µg/mL (≈ 1.76 to 14.1 µM) |  |  | < 1 µg/mL |  |  | 1 to 8 µg/mL (≈ 1.76 to 14.1 µM) | > 8 µg/mL | > 8 µg/mL | > 8 µg/mL | 1 to 8 µg/mL (≈ 1.76 to 14.1 µM) | 1 to 8 µg/mL (≈ 1.76 to 14.1 µM) | 1 to 8 µg/mL (≈ 1.76 to 14.1 µM) | 1 to 8 µg/mL (≈ 1.76 to 14.1 µM) | < 1 µg/mL | 1 to 8 µg/mL (≈ 1.76 to 14.1 µM) | 1 to 8 µg/mL (≈ 1.76 to 14.1 µM) | MIC [6, 13]: 1 to 8 µg/mL (≈ 1.76 to 14.1 µM)
